Results: patent publication US20200354426A1 (MEDIMMUNE LIMITED, priority 2016, published 2020)
Numbered stars: 1 amine (or outer) side, 2 acyl side, 3 side chain; on linkers, the order of the positions; unused ones are H or OH. Side chains are listed from the residue outwards. Peptide text beside a SMILES is read from it. * marks the point of attachment. γGlu = O=C(O)[C@H](CCC(=O)[*:2])N[*:1]; Palmitoyl = CCCCCCCCCCCCCCCC(=O)*; Ahx = NCCCCCC(=O)O; βAla = NCCC(=O)O

Key:
Assay in all cases: cAMP activity assay in assay medium (assay 1)
Format in all cases: cell-based
Human GLP1R = Human GLP1R (Homo sapiens, UniProt P43220); design: expressed in transfected cells; details: assay medium; Table 4; read-out: hGLP1R EC50
Description: (§1) Biological Activity of Peptides in Cell-Based cAMP Activity Assay (Assay 1):
(§2) All sample dilutions were made in duplicate.

Human GlucR = target: T1, Human GlucR (Homo sapiens, UniProt P47871); details: assay medium; Table 4; read-out: hGlucR EC50
T1 construct: expressed in transfected cells
Description: as §1, §2

Human GIPr = target: T2, Human GIPr (Homo sapiens, UniProt P48546); details: assay medium; Table 4; read-out: hGIPR EC50
T2 construct: expressed in transfected cells
T2 sequence (P48546 22-466): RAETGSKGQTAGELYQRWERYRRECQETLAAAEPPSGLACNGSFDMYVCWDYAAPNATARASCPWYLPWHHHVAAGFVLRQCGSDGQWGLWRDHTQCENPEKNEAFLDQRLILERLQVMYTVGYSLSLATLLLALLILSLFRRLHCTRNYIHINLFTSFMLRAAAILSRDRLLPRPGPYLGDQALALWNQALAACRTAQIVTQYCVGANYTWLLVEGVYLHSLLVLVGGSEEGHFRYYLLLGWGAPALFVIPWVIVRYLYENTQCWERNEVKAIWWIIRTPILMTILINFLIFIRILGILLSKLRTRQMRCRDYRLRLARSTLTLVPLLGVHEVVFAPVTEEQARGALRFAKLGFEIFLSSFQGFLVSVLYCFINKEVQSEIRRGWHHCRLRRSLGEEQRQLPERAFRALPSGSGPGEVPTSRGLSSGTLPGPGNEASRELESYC
Description: as §1, §2

Human GLP1R, sequence (P43220 24-463): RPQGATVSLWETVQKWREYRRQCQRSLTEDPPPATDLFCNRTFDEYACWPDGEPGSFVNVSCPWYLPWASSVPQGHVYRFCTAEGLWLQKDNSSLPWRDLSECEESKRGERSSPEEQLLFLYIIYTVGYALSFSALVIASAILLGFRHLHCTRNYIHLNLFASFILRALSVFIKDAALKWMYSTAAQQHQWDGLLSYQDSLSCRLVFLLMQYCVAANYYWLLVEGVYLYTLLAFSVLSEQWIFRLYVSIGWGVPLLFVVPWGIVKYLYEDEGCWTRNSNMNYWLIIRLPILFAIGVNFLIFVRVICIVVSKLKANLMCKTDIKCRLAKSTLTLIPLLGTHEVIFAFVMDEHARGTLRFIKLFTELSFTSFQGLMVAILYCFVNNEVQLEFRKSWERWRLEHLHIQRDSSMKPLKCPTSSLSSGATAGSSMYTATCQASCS
T1 sequence (P47871 26-477): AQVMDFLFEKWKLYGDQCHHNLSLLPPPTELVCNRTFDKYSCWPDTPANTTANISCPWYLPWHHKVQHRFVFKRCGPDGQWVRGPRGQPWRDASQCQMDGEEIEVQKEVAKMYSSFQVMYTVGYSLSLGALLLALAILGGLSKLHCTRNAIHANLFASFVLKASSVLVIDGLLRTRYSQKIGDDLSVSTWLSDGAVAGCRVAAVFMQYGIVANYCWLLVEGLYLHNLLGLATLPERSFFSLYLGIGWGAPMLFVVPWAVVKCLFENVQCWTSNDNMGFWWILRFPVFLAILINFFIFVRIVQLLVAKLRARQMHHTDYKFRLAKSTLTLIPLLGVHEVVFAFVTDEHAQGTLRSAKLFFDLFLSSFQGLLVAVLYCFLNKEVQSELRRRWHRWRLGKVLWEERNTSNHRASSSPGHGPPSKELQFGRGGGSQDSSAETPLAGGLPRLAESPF

| SMILES | EC50 (Human GLP1R) | EC50 (Human GlucR) | EC50 (Human GIPr) |
| --- | --- | --- | --- |
| CCCCCCCCCCCCCCCC(=O)N[C@@H](CCC(=O)NCCCC[C@H](NC(=O)[C@H](Cc1ccc(O)cc1)NC(=O)[C@H](CCCCN)NC(=O)[C@H](CO)NC(=O)[C@H](Cc1ccc(O)cc1)NC(=O)[C@H](CC(=O)O)NC(=O)[C@H](CO)NC(=O)[C@@H](NC(=O)[C@H](Cc1ccccc1)NC(=O)[C@@H](NC(=O)CNC(=O)[C@H](CCC(N)=O)NC(=O)[C@H](CO)NC(=O)[C@@H](N)Cc1c[nH]cn1)[C@@H](C)O)[C@@H](C)O)C(=O)N[C@@H](CC(=O)O)C(=O)N[C@@H](CO)C(=O)N[C@@H](CCCNC(=N)N)C(=O)N[C@@H](C)C(=O)N[C@@H](C)C(=O)N[C@@H](CCC(N)=O)C(=O)N[C@@H](CC(=O)O)C(=O)N[C@@H](Cc1ccccc1)C(=O)N[C@H](C(=O)N[C@@H](CCC(N)=O)C(=O)N[C@@H](Cc1c[nH]c2ccccc12)C(=O)N[C@@H](CC(C)C)C(=O)N[C@@H](CCC(=O)O)C(=O)N[C@@H](C)C(=O)NCC(=O)NCC(N)=O)C(C)C)C(=O)O [g817] (H-HSQGTFTSDYSKYK([γGlu-Palmitoyl])DSRAAQDFVQWLEAGG-NH2; N-terminus assumed) | 25.1 pM | 1.68 pM | 15200 pM |
| CCCCCCCCCCCCCCCC(=O)NCCCCCC(=O)NCCCC[C@H](NC(=O)[C@H](CO)NC(=O)[C@H](CC(=O)O)NC(=O)[C@H](CC(C)C)NC(=O)[C@H](Cc1ccc(O)cc1)NC(=O)[C@H](CCC(=O)O)NC(=O)[C@H](CO)NC(=O)[C@H](Cc1ccc(O)cc1)NC(=O)[C@H](CC(=O)O)NC(=O)[C@H](CO)NC(=O)[C@@H](NC(=O)[C@H](Cc1ccccc1)NC(=O)[C@@H](NC(=O)CNC(=O)[C@H](CCC(N)=O)NC(=O)[C@H](CO)NC(=O)[C@@H](N)Cc1c[nH]cn1)[C@@H](C)O)[C@@H](C)O)C(=O)N[C@@H](CCCNC(=N)N)C(=O)N[C@@H](C)C(=O)N[C@@H](C)C(=O)N[C@@H](CC(=O)O)C(=O)N[C@@H](Cc1ccccc1)C(=O)N[C@H](C(=O)N[C@@H](C)C(=O)N[C@@H](Cc1c[nH]c2ccccc12)C(=O)N[C@@H](CC(C)C)C(=O)N[C@@H](CCC(=O)O)C(=O)N[C@@H](CCCNC(=N)N)C(=O)NCC(=O)NCC(N)=O)C(C)C [g818] (H-HSQGTFTSDYSEYLDSK([Ahx-Palmitoyl])RAADFVAWLERGG-NH2; N-terminus assumed) | 21 pM | 8.9 pM | 94000 pM |
| CCCCCCCCCCCCCCCC(=O)NCCC(=O)NCCCC[C@H](NC(=O)[C@H](CO)NC(=O)[C@H](CC(=O)O)NC(=O)[C@H](CC(C)C)NC(=O)[C@H](Cc1ccc(O)cc1)NC(=O)[C@H](CCCCN)NC(=O)[C@H](CO)NC(=O)[C@H](Cc1ccc(O)cc1)NC(=O)[C@H](CC(=O)O)NC(=O)[C@H](CO)NC(=O)[C@@H](NC(=O)[C@H](Cc1ccccc1)NC(=O)[C@@H](NC(=O)CNC(=O)[C@H](CCC(N)=O)NC(=O)[C@H](CO)NC(=O)[C@@H](N)Cc1c[nH]cn1)[C@@H](C)O)[C@@H](C)O)C(=O)N[C@@H](CCCNC(=N)N)C(=O)N[C@@H](C)C(=O)N[C@@H](CCCNC(=N)N)C(=O)N[C@@H](CC(=O)O)C(=O)N[C@@H](Cc1ccccc1)C(=O)N[C@H](C(=O)N[C@@H](C)C(=O)N[C@@H](Cc1c[nH]c2ccccc12)C(=O)N[C@@H](CC(C)C)C(=O)N[C@@H](CCC(=O)O)C(=O)N[C@@H](C)C(=O)NCC(=O)NCC(N)=O)C(C)C [g819] (H-HSQGTFTSDYSKYLDSK([βAla-Palmitoyl])RARDFVAWLEAGG-NH2; N-terminus assumed) | 18 pM | 2.34 pM | 103000 pM |
| CCCCCCCCCCCCCCCC(=O)N[C@@H](CCC(=O)NCCCC[C@H](NC(=O)[C@H](CCCNC(=N)N)NC(=O)[C@H](CO)NC(=O)[C@H](Cc1ccc(O)cc1)NC(=O)[C@H](CC(=O)O)NC(=O)[C@H](CO)NC(=O)[C@@H](NC(=O)[C@H](Cc1ccccc1)NC(=O)[C@@H](NC(=O)CNC(=O)[C@H](CCC(N)=O)NC(=O)[C@H](CO)NC(=O)[C@@H](N)Cc1c[nH]cn1)[C@@H](C)O)[C@@H](C)O)C(=O)N[C@@H](CC(C)C)C(=O)N[C@@H](CC(=O)O)C(=O)N[C@@H](CO)C(=O)N[C@@H](CCC(=O)O)C(=O)N[C@@H](CCCNC(=N)N)C(=O)N[C@@H](C)C(=O)N[C@@H](CCCNC(=N)N)C(=O)N[C@@H](CC(=O)O)C(=O)N[C@@H](Cc1ccccc1)C(=O)N[C@H](C(=O)N[C@@H](C)C(=O)N[C@@H](Cc1c[nH]c2ccccc12)C(=O)N[C@@H](CC(C)C)C(=O)N[C@H](C(=O)N[C@@H](C)C(=O)NCC(=O)NCC(N)=O)C(C)C)C(C)C)C(=O)O [g820] (H-HSQGTFTSDYSRK([γGlu-Palmitoyl])LDSERARDFVAWLVAGG-NH2; N-terminus assumed) | 33.9 pM | 11.7 pM | 71100 pM |
| CCCCCCCCCCCCCCCC(=O)N[C@@H](CCC(=O)NCCCC[C@H](NC(=O)[C@H](CO)NC(=O)[C@H](CC(=O)O)NC(=O)[C@H](CC(C)C)NC(=O)[C@H](Cc1ccc(O)cc1)NC(=O)[C@H](CCCNC(=N)N)NC(=O)[C@H](CO)NC(=O)[C@H](Cc1ccc(O)cc1)NC(=O)[C@H](CC(=O)O)NC(=O)[C@H](CO)NC(=O)[C@@H](NC(=O)[C@H](Cc1ccccc1)NC(=O)[C@@H](NC(=O)CNC(=O)[C@H](CCC(N)=O)NC(=O)[C@H](CO)NC(=O)[C@@H](N)Cc1c[nH]cn1)[C@@H](C)O)[C@@H](C)O)C(=O)N[C@@H](CCCNC(=N)N)C(=O)N[C@@H](C)C(=O)N[C@@H](CCCNC(=N)N)C(=O)N[C@@H](CC(=O)O)C(=O)N[C@@H](Cc1ccccc1)C(=O)N[C@H](C(=O)N[C@@H](CCC(=O)O)C(=O)N[C@@H](Cc1c[nH]c2ccccc12)C(=O)N[C@@H](CC(C)C)C(=O)N[C@H](C(=O)N[C@@H](C)C(=O)NCC(=O)NCC(N)=O)C(C)C)C(C)C)C(=O)O [g823] (H-HSQGTFTSDYSRYLDSK([γGlu-Palmitoyl])RARDFVEWLVAGG-NH2; N-terminus assumed) | 97.3 pM | 9.48 pM | 84200 pM |
| CCCCCCCCCCCCCCCC(=O)N[C@@H](CCC(=O)NCCCC[C@H](NC(=O)[C@H](Cc1ccc(O)cc1)NC(=O)[C@H](CCCCN)NC(=O)[C@H](CO)NC(=O)[C@H](Cc1ccc(O)cc1)NC(=O)[C@H](CC(=O)O)NC(=O)[C@H](CO)NC(=O)[C@@H](NC(=O)[C@H](Cc1ccccc1)NC(=O)[C@@H](NC(=O)CNC(=O)[C@H](CCC(N)=O)NC(=O)[C@H](CO)NC(=O)[C@@H](N)Cc1c[nH]cn1)[C@@H](C)O)[C@@H](C)O)C(=O)N[C@@H](CC(=O)O)C(=O)N[C@@H](CO)C(=O)N[C@@H](CCCNC(=N)N)C(=O)N[C@@H](CCCNC(=N)N)C(=O)N[C@@H](C)C(=O)N[C@@H](CCCNC(=N)N)C(=O)N[C@@H](CC(=O)O)C(=O)N[C@@H](Cc1ccccc1)C(=O)N[C@H](C(=O)N[C@@H](CCC(=O)O)C(=O)N[C@@H](Cc1c[nH]c2ccccc12)C(=O)N[C@@H](CC(C)C)C(=O)N[C@@H](CCC(=O)O)C(=O)N[C@@H](C)C(=O)NCC(=O)NCC(N)=O)C(C)C)C(=O)O [g824] (H-HSQGTFTSDYSKYK([γGlu-Palmitoyl])DSRRARDFVEWLEAGG-NH2; N-terminus assumed) | 47.1 pM | 1.05 pM | 57400 pM |
| CCCCCCCCCCCCCCCC(=O)NCCCCCC(=O)NCCCC[C@H](NC(=O)[C@H](CO)NC(=O)[C@H](CC(=O)O)NC(=O)[C@H](CC(C)C)NC(=O)[C@H](Cc1ccc(O)cc1)NC(=O)[C@H](CCC(=O)O)NC(=O)[C@H](CO)NC(=O)[C@H](Cc1ccc(O)cc1)NC(=O)[C@H](CC(=O)O)NC(=O)[C@H](CO)NC(=O)[C@@H](NC(=O)[C@H](Cc1ccccc1)NC(=O)[C@@H](NC(=O)CNC(=O)[C@H](CCC(N)=O)NC(=O)[C@H](CO)NC(=O)[C@@H](N)Cc1c[nH]cn1)[C@@H](C)O)[C@@H](C)O)C(=O)N[C@@H](CCCNC(=N)N)C(=O)N[C@@H](C)C(=O)N[C@@H](CCCNC(=N)N)C(=O)N[C@@H](CC(=O)O)C(=O)N[C@@H](Cc1ccccc1)C(=O)N[C@H](C(=O)N[C@@H](C)C(=O)N[C@@H](Cc1c[nH]c2ccccc12)C(=O)N[C@@H](CC(C)C)C(=O)N[C@@H](CCC(=O)O)C(=O)N[C@@H](CCCNC(=N)N)C(=O)NCC(=O)NCC(=O)O)C(C)C [g826] (H-HSQGTFTSDYSEYLDSK([Ahx-Palmitoyl])RARDFVAWLERGG-OH; N-terminus assumed) | 29.3 pM | 4.23 pM | 58000 pM |
| CCCCCCCCCCCCCCCC(=O)N[C@@H](CCC(=O)NCCCC[C@H](NC(=O)[C@H](CO)NC(=O)[C@H](CC(=O)O)NC(=O)[C@H](CC(C)C)NC(=O)[C@H](Cc1ccc(O)cc1)NC(=O)[C@H](CCC(=O)O)NC(=O)[C@H](CO)NC(=O)[C@H](Cc1ccc(O)cc1)NC(=O)[C@H](CC(=O)O)NC(=O)[C@H](CO)NC(=O)[C@@H](NC(=O)[C@H](Cc1ccccc1)NC(=O)[C@@H](NC(=O)CNC(=O)[C@H](CCC(N)=O)NC(=O)[C@H](CO)NC(=O)[C@@H](N)Cc1c[nH]cn1)[C@@H](C)O)[C@@H](C)O)C(=O)N[C@@H](CCCNC(=N)N)C(=O)N[C@@H](C)C(=O)N[C@@H](CCCNC(=N)N)C(=O)N[C@@H](CC(=O)O)C(=O)N[C@@H](Cc1ccccc1)C(=O)N[C@H](C(=O)N[C@@H](CCC(=O)O)C(=O)N[C@@H](Cc1c[nH]c2ccccc12)C(=O)N[C@@H](CC(C)C)C(=O)N[C@H](C(=O)N[C@@H](C)C(=O)NCC(=O)NCC(N)=O)C(C)C)C(C)C)C(=O)O [g835] (H-HSQGTFTSDYSEYLDSK([γGlu-Palmitoyl])RARDFVEWLVAGG-NH2; N-terminus assumed) | 191 pM | 424 pM | 97200 pM |
